In data set [1] the test system is HeLa. In words: ATP-based viability loss in HeLa cells – cell-based, CellTiter-Glo luminescence, cherry-pick samples, cytotoxicity control for MITF activator project, dose response (AID 540259). The format is functional. To be noted: Homo sapiens.
Data set [2] deals with Escherichia coli. Briefly: microbe, parasite or virus in culture.
In data set [3] the target is Cytochrome P450 2C19 (Homo sapiens, UniProt P33261). In words: Cytochrome panel assay with activity outcomes. Panel member name: p450-cyp2c19 Compounds with AC50 equal or less than 10 uM are considered active. The format is functional.
Sequence of Cytochrome P450 2C19 (P33261 whole entry): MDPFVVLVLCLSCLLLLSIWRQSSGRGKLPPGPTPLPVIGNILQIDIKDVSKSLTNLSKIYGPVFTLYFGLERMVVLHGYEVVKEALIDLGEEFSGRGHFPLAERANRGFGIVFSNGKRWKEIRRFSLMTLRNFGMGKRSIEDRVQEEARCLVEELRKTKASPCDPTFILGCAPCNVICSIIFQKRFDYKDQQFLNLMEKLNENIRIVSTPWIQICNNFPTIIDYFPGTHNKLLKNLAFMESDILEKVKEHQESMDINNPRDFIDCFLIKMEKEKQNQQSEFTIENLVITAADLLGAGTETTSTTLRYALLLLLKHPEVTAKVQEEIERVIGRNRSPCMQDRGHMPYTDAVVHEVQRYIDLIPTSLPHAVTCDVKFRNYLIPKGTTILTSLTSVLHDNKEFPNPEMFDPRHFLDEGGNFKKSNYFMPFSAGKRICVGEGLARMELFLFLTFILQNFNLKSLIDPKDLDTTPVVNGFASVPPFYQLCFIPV
For data set [4], the target named is T1, Cytochrome P450 1A2 (Homo sapiens, UniProt P05177).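 Also: PubChem cytochrome P450 panel assay, CYP1A2 panel member.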
T1 sequence (P05177 whole entry): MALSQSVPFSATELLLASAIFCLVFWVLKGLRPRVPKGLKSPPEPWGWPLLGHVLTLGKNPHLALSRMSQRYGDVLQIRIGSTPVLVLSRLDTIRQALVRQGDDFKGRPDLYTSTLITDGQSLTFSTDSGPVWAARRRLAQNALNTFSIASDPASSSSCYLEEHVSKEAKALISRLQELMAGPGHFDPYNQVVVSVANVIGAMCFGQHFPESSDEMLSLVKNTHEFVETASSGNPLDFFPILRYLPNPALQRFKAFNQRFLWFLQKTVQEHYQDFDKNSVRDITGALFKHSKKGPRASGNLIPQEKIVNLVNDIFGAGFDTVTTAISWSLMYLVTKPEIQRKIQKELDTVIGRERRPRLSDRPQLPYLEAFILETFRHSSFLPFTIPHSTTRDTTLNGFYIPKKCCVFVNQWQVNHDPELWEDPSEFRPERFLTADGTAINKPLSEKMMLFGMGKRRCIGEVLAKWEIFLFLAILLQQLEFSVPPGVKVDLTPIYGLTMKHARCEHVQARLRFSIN

Data set [5] has as its target Cytochrome P450 3A4 (Homo sapiens, UniProt P08684).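 Also: CYP3A4 tested as one member of a cytochrome P450 panel screen.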
Data set [6] deals with Phospholipase A2 (Homo sapiens, UniProt P04054). The format is functional.
Sequence of Phospholipase A2 (P04054 whole entry): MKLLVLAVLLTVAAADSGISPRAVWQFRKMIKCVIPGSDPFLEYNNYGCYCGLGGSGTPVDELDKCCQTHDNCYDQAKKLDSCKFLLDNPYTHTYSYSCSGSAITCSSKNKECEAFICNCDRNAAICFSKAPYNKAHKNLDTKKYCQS
The target of data set [7] is T2, Cysteine protease ATG4B (Homo sapiens, UniProt Q9Y4P1).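 Also: Fluorescence-based dose-response confirmation assay measuring inhibition of ATG4B activity.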
T2 sequence (Q9Y4P1 whole entry): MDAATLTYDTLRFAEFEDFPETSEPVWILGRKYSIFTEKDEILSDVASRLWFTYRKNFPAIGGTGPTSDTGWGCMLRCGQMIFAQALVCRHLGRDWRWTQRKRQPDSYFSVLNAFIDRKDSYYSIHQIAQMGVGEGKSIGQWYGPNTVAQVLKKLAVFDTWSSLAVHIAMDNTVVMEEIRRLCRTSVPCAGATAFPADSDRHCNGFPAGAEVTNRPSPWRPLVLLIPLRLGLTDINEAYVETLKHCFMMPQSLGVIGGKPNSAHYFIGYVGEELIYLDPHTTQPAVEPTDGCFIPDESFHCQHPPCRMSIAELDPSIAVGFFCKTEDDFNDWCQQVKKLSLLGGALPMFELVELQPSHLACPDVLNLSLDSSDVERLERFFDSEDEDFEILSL
In kind it is functional.

Data set [8] can be described thus: NIH-3T3 fibroblast cytotoxicity, dose response, cytotoxicity control, cell-based, fluorescence, Alamar Blue, secondary assay (AID 2327).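 Also: NIH-3T3 mouse fibroblasts cultured with fluconazole at 8 µg/mL.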 In kind it is functional.
Data set [9] has as its target ATP-dependent molecular chaperone HSP82 (Candida albicans (strain WO-1) (Yeast), UniProt C4YTQ8). In words: steroid-induced GRE reporter decrease in yeast – S. cerevisiae, luminescence, Hsp90 inhibitor project, dose response (AID 2400).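 Also: beta-galactosidase luminescence from glucocorticoid response element reporter as proxy for Hsp90 function; inhibitor potency where signal loss means Hsp90 inhibition.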 In kind it is functional, cell-based.
Data set [10] can be described thus: fluconazole-exposed Candida albicans growth modulators – fluorescence, retest, confirmation (AID 2467). In kind it is functional, cell-based.
Data set [11] concerns the target T3, Serine/threonine-protein phosphatase (Candida dubliniensis (strain CD36 / CBS 7987 / NCPF 3949 / NRRLY-17841) (Yeast), UniProt B9W6M3).
T3 sequence (B9W6M3 whole entry): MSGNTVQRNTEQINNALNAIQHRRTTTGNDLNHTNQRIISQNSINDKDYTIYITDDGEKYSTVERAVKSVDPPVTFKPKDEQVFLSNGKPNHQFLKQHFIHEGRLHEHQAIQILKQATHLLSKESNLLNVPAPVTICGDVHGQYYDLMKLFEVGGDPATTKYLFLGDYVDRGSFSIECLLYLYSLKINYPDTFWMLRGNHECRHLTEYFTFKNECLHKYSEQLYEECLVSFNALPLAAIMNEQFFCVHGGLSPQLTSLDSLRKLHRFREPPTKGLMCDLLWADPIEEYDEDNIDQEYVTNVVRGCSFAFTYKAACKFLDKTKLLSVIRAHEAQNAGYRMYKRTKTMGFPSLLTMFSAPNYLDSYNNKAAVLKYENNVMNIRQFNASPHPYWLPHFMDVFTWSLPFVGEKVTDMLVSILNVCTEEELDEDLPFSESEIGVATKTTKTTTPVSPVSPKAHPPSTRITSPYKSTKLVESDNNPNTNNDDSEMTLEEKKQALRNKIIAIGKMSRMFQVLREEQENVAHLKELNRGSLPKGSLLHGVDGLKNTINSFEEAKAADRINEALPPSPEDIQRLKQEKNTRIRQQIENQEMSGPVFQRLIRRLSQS
Briefly: blockers of CaCl2-induced CDRE-lacZ signaling – S. cerevisiae, luminescence, secondary, dose response (AID 2388).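 Also: yeast reporter cells carrying a calcineurin-responsive lacZ construct stimulated with calcium chloride; luminescent beta-galactosidase reporter signal in whole cells rather than isolated phosphatase activity; potency for inhibition where a drop in reporter signal means calcineurin blockade.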 In kind it is functional, cell-based.

The test system of data set [12] is Vero. Briefly: cells. In kind it is functional. As to conditions: Chlorocebus sabaeus.
The target of data set [13] is T4, Ubiquitin-conjugating enzyme E2 N (Homo sapiens, UniProt P61088).
T4 sequence (P61088 whole entry): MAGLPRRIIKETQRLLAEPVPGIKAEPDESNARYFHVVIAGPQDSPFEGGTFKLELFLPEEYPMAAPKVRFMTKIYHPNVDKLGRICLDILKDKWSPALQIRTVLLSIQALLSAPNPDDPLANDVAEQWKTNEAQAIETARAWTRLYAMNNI
In kind it is functional.

Data set [14] concerns the target T5, Bcl-2-related protein A1 (Mus musculus, UniProt Q07440).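 Also: confirmatory dose–response counterscreen on Bfl-1, used to check hits from a UBC13 polyubiquitin inhibitor campaign.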
T5 sequence (Q07440 whole entry): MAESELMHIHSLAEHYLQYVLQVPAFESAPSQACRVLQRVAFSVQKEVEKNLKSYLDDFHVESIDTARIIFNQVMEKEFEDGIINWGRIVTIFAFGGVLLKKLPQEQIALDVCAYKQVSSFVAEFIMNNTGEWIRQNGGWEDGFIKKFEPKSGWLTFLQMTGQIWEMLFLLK
The format is functional.

The target of data set [15] is T4, Ubiquitin-conjugating enzyme E2 N. The format is functional. This is another data set of the same source.
The subject of data set [16] is HEK293. In words: cells. To be noted: Homo sapiens.
The subject of data set [17] is HEK293. In words: cells. As to conditions: Homo sapiens. This is another data set of the same source.
Data set [18] has as its target T6, Hexokinase-1 (Homo sapiens, UniProt P19367).
T6 sequence (P19367 whole entry): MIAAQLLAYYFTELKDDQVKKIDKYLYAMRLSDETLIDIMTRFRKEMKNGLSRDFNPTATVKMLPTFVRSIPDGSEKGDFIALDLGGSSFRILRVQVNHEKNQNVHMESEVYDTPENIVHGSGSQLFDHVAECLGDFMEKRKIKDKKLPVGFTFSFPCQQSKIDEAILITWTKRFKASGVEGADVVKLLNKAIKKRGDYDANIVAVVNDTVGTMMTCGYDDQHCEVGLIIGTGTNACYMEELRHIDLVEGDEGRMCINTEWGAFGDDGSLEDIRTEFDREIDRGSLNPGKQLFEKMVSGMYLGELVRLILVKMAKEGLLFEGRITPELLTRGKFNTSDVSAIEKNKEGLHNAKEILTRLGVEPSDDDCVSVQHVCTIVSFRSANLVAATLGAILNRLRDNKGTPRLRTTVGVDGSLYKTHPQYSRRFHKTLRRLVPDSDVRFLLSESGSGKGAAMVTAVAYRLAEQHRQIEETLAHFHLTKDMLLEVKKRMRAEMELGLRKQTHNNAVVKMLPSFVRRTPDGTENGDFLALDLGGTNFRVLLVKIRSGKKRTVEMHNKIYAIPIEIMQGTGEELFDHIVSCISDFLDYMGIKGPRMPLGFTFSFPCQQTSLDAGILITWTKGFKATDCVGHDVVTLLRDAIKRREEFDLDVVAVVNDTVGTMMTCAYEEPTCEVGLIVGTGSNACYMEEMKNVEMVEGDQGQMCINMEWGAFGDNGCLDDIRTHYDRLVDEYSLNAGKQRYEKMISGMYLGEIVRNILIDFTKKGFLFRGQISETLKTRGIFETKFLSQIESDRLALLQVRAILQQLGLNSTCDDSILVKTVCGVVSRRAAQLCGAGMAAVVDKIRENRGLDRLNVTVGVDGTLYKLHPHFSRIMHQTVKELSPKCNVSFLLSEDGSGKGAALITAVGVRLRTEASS
In words: SAR analysis of small molecule inhibitors of hexokinase domain containing I (HKDC1) in the hexokinase 1 selectivity assay. [Related pubchem assays (depositor defined):AID493160, AID493190]. The format is functional.

For data set [19], the target named is T7, Hexokinase HKDC1 (Homo sapiens, UniProt Q2TB90).
T7 sequence (Q2TB90 whole entry): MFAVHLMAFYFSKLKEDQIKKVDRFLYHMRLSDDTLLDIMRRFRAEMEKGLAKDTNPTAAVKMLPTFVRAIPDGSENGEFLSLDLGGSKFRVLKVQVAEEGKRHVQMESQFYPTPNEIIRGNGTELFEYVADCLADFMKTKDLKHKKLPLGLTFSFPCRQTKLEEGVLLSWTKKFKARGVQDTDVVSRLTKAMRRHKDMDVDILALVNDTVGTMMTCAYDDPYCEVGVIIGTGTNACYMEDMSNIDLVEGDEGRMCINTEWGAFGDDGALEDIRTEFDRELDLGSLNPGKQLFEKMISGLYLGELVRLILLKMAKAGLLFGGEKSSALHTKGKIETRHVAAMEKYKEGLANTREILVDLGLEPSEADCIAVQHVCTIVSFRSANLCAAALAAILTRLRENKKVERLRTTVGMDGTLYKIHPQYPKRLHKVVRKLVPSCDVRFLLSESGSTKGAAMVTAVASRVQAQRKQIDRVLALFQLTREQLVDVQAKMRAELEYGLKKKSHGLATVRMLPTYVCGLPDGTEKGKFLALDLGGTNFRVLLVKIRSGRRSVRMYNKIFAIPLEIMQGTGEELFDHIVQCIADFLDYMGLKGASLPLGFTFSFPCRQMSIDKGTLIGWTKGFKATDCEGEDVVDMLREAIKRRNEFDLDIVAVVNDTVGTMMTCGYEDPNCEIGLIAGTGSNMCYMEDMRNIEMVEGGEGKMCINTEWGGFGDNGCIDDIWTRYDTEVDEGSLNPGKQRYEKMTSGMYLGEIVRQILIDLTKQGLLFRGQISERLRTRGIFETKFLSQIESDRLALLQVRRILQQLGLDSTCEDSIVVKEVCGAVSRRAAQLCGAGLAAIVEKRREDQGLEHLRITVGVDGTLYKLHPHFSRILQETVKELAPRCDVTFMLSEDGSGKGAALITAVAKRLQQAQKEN
In words: SAR analysis of small molecule inhibitors of hexokinase domain containing I (HKDC1). [Related pubchem assays (depositor defined):AID493160, AID493190]. The format is functional.

The source made the active and inactive calls.

Sequence of Cytochrome P450 3A4 (P08684 whole entry): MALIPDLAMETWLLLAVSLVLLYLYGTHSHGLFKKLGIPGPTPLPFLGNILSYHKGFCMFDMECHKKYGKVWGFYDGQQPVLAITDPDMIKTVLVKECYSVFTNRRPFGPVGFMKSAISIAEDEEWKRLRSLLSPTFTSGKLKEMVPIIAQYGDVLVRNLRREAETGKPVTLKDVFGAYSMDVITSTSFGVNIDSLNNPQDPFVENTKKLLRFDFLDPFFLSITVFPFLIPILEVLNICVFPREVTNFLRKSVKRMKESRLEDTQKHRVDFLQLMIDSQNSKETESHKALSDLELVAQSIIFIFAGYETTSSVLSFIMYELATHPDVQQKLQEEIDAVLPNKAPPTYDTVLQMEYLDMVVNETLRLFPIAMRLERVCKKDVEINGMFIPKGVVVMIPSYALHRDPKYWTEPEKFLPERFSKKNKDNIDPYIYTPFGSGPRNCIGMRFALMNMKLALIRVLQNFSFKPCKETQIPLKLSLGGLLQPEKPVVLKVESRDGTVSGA
Sequence of ATP-dependent molecular chaperone HSP82 (C4YTQ8 whole entry): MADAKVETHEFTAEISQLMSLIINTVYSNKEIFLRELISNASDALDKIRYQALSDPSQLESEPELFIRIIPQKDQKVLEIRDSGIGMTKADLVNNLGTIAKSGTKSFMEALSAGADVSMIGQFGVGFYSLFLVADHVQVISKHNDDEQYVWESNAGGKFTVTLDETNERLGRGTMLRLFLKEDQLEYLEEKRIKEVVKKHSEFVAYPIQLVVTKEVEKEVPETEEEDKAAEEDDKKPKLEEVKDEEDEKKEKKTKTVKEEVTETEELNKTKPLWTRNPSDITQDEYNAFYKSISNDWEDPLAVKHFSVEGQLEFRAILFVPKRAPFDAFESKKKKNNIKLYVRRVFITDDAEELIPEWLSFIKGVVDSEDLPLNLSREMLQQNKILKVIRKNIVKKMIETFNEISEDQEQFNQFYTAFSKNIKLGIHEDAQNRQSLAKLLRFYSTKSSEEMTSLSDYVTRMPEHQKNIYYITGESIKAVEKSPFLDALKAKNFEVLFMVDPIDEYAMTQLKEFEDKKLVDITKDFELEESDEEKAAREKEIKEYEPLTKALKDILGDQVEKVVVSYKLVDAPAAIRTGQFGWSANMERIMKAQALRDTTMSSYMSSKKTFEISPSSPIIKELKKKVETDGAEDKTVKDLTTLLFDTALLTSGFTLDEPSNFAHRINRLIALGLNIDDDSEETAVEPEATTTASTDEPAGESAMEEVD

In general, AC50 refers to the concentration giving half of the maximal activity seen. On to `CCC(=O)NCCc1nc2cc(NC(=O)c3ccc(Cl)cc3)ccc2n1C`, for which the AC50 in data set [1] was 250 µM (active).
For the compound `COc1ccc(N(CC(=O)NCc2ccc(Cl)cc2)S(=O)(=O)c2ccccc2[N+](=O)[O-])c(OC)c1`, the half-maximal activity concentration (AC50) in data set [2] is 23.3 µM (active).
With `Cc1ccc(C)c(N2CCN(c3ccc4cc(S(=O)(=O)N5CCCCC5)ccc4n3)CC2)c1`, the concentration at half-maximal activity (AC50) in data set [2] is 27.6 µM (active).
In the case of `CCNc1ncc2nc(-c3ccc(Cl)cc3)c(=O)n(Cc3ccc(F)cc3)c2n1`, the figures for the half-maximal activity concentration (AC50) result in [3], in data set [4] and in data set [5] were “inconclusive”, 12.6 µM (inconclusive) and “inconclusive”, respectively.
For orientation: IC50 means the concentration at which inhibition is half-maximal. Turning to `c1ccc(CSc2nnc3c(n2)OC(c2ccco2)Nc2ccccc2-3)cc1` (centres undefined), the results for the IC50 in [6] and in data set [7] were 40.1 µM (inactive) and 43 µM (inactive), respectively.
The EC50 is the concentration needed to bring the measured effect to its halfway point. One may read the CC50 as the concentration that lowers cell viability or growth by half. In the case of `Cc1cc(C)cc(OCC(=O)NNC(=S)NC(=O)C2CC2)c1`, the EC50 in [8] was 43.5 µM (active); in data set [9] it was 17.8 µM (active); in data set [10], 0.962 µM (active); in data set [11], > 180 µM (inactive). Besides, the cytotoxic concentration (CC50) in data set [12] was > 25 µM (active). The IC50 was 7.6 µM (active) in data set [13], > 20 µM (inactive) in data set [14] and 7.38 µM (active) in [15].
With `Cc1cc(C(=O)CN2C(=O)NC3(CCCCC3C)C2=O)c(C)n1Cc1cccs1` (centres undefined), the AC50 in data set [1] was > 350 µM (inactive).
For `Cc1ccc(NC(=O)CSCC(=O)Nc2ccccc2N2CCCCC2)cc1`, the EC50 in data set [16] and in data set [17] was > 59.6 µM (inactive) throughout.
As to `O=C(CNc1cccc(F)c1)N1CCc2ccccc2C1`, in data set [1], the AC50 was 157 µM (active).
In the case of `O=C(CCc1nc2cccnc2n1Cc1ccccc1)N1CCOCC1`, the AC50 in [2] is 28.4 µM (active).
As for `CN(C)c1ccc(/C=C/c2nc3ccccc3c(=O)n2Cc2ccccc2)cc1`, the IC50 in data set [18] and in data set [19] was > 80 µM (inactive) each time.
Consider `COc1cc2c(cc1OC)-c1cc(NCc3ccc4c(c3)OCO4)nc(=O)n1CC2`, for which the IC50 in data set [18] and in data set [19] was > 80 µM (inactive) each time.
For `Cc1ccc(/C=C/c2nc3ccccc3c(=O)n2Cc2ccccc2)cc1`, the IC50 in data set [18] and in data set [19] was > 80 µM (inactive) in each case.
As to `CCOC(=O)c1c(CSc2ccccc2)n(C)c2cc(Br)c(O)c(CN(C)C)c12` [UMIFENOVIR], the EC50 in data set [16] and in [17] was > 59.7 µM (inactive) throughout.

For the origin of these results see ChEMBL document CHEMBL1201862, “PubChem BioAssay data set” (2004).
